The record followed here is patent US12643858B2 (Inipharm, Inc., priority 2020, dated 2026).

This assay concerns the target T1, HSD17B13 enzyme (Homo sapiens, UniProt Q7Z5P4).
T1 construct: His; made in house; host or cells: E. coli
T1 sequence (Q7Z5P4 20-300): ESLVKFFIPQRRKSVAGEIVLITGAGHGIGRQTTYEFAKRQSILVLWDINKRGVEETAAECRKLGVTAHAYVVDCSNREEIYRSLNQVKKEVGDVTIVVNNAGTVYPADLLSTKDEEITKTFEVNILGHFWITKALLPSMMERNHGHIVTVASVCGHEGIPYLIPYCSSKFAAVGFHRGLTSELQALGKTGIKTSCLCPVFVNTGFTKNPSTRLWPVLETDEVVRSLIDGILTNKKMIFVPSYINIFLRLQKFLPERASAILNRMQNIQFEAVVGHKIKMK
As to the kind of experiment: NADH detection assay (fluorescence based LTB3 assay) for HSD17B13 activity. The format is biochemical. The conditions noted are these: substrate 25 μM LTB3, 3 mM NAD+, 125 nM HSD17B13 enzyme, 1 hour at 26.5° C. The procedure: Example A: NADH Detection Assay for Evaluation of HSD17ß13 Activity and Identification of Inhibitors
The fluorescence based Leukotriene B3 (LTB3) assay monitors the fluorescence of NADH, which is generated from NAD+ during the dehydrogenation of the substrate LTB3. The reactions were performed in a 384-well plates (Greiner; #655076) in a 20 μl reaction volume containing the following reagents (final concentrations): 25 μM LTB3 (Cayman; #20109); 3 mM NAD+ (Sigma; #N0623); 125 nM HSD17B13 enzyme (in-house; E. coli expressed His-tagged, purified, soluble protein); […] potassium phosphate buffer, pH 7.4; and 1% DMSO. Reactions were initiated by co-addition of NAD+ and enzyme, and monitored for 1 hour at 26.5° C. Generation of NADH was measured as the fluorescence signal (Excitation at 340 nm and Emission at 445 nm) at 1 hour minus the baseline fluorescence at t=0. Fluorescence signals in the absence of LTB3 (negative control values), were subtracted from all values so that the results reflected substrate-dependent production of NADH. NADH standards were included to allow the conversion of relative fluorescence units into rates of enzyme activity. Enzyme activity in the presence of test compounds was expressed as a percentage of the uninhibited enzyme activity, and plotted versus inhibitor concentration. Non-linear regression was performed using a four-parameter logistic model and GraphPad Prism software (GraphPad Software, La Jolla, CA). Ten concentrations of inhibitor were tested (in the range of 30 μM-2.5 nM), and two independent assessments were performed at each concentration.
As to `N#Cc1cc(Oc2ccc(F)c(O)c2)nc(-c2cccc(O)c2F)c1` [Example 27, 2-(4-fluoro-3-hydroxyphenoxy)-6-(2-fluoro-3-hydroxyphenyl) pyridine-4-carbonitrile], the IC50 was not above 5 µM. Regarding `CS(=O)(=O)NCc1cccc(Oc2cccc(-c3cccc(O)c3F)n2)c1` [Example 94, N-[(3-{[6-(2-fluoro-3-hydroxyphenyl)pyridin-2-yl]oxy}phenyl)methyl]methane-sulfonamide], the half-inhibitory concentration (IC50) is more than 30 µM. Next, `Oc1cc(Oc2cccc(-c3ccc(OC(F)(F)F)c(Cl)c3)n2)ccc1F` [Example 66, 5-((6-(3-chloro-4-(trifluoromethoxy)phenyl)pyridin-2-yl)oxy)-2-fluorophenol]: not above 5 µM. `N#Cc1ccc(-c2cccc(Oc3ccc(F)c(O)c3)n2)c(F)c1` [Example 92, 3-fluoro-4-(6-(4-fluoro-3-hydroxyphenoxy)pyridin-2-yl)benzonitrile] yielded a concentration for half-maximal inhibition (IC50) of more than 30 µM. With `COc1cc(Oc2cccc(-c3ccc4cn[nH]c4c3)n2)ccc1F` [Example 110, 6-[6-(4-fluoro-3-methoxyphenoxy)pyridin-2-yl]-2H-indazole], the IC50 is more than 30 µM.

For the compound `Oc1cc(Oc2cccc(-c3cc(F)cc(F)c3)n2)ccc1F` [Example 89, 5-{[6-(3,5-difluorophenyl)pyridin-2-yl]oxy}-2-fluorophenol], the IC50 is not above 5 µM. As to `COc1cccc(-c2cccc(Oc3ccc4c(c3)NC(=O)C4)n2)c1F` [Example 6, 6-{[6-(2-fluoro-3-methoxyphenyl)pyridin-2-yl]oxy}-2,3-dihydro-1H-indol-2-one], the IC50 is more than 30 µM. In the case of `Oc1ccc(Oc2cccc(-c3cccc(O)c3F)n2)cc1F` [Example 37, 2-fluoro-3-[6-(3-fluoro-4-hydroxyphenoxy)pyridin-2-yl] phenol], the IC50 was not above 5 µM. On to `Oc1cc(Oc2cccc(-c3cccc(Cl)c3F)n2)ccc1F` [Example 86, 5-{[6-(3-chloro-2-fluorophenyl)pyridin-2-yl]oxy}-2-fluorophenol], for which the IC50 was not above 5 µM.

On to `Oc1cc(Oc2cccc(-c3ccccc3F)n2)ccc1F` [Example 90, 2-fluoro-5-((6-(2-fluorophenyl)pyridin-2-yl)oxy)phenol], for which the IC50 was not above 5 µM. `COc1cc(Oc2nccc(-c3cccc(O)c3F)n2)ccc1F` [Example 10, 2-fluoro-3-[2-(4-fluoro-3-methoxyphenoxy)pyrimidin-4-yl]phenol] came in with an IC50 of more than 30 µM.

`CC(=O)Nc1cc(Oc2cccc(-c3cccc(O)c3F)n2)ccc1F` [Example 106, N-(2-fluoro-5-{[6-(2-fluoro-3-hydroxyphenyl)pyridin-2-yl]oxy}phenyl)acetamide] showed an IC50 of more than 30 µM. In turn, `Nc1nc2cc(-c3cccc(Oc4ccc(F)c(O)c4)n3)ccc2o1` [Example 32, 5-{[6-(2-amino-1,3-benzoxazol-5-yl)pyridin-2-yl]oxy}-2-fluorophenol] registered an IC50 of 5 to 10 µM.

Consider `Oc1cccc(Oc2cccc(-c3cccc(O)c3F)n2)c1F` [Example 36, 2-fluoro-3-(6-(2-fluoro-3-hydroxyphenoxy)pyridin-2-yl)phenol], for which the IC50 was not above 5 µM. With `Oc1cc(Oc2cccc(-c3ccc(Cl)cc3)n2)ccc1F` [Example 82, 5-{[6-(4-chlorophenyl)pyridin-2-yl]oxy}-2-fluorophenol], the IC50 was not above 5 µM. Turning to `Oc1cc(Oc2cccc(-c3cccnc3)n2)ccc1F` [Example 1, 5-([2,3′-bipyridin]-6-yloxy)-2-fluorophenol], the IC50 was not above 5 µM. `Oc1cccc(-c2cccc(Oc3ccc(F)c(OC(F)F)c3)n2)c1F` [Example 14, 3-{6-[3-(difluoromethoxy)-4-fluorophenoxy]pyridin-2-yl}-2-fluorophenol]: the IC50 is more than 30 µM. Next, `O=C1COc2cc(-c3cccc(Oc4ccc(F)c(O)c4)n3)ccc2N1` [Example 51, 7-(6-(4-fluoro-3-hydroxyphenoxy)pyridin-2-yl)-2H-benzo[b][1,4]oxazin-3(4H)-one]: more than 30 µM; `O=c1[nH]c2ccc(Oc3cccc(-c4cccc(O)c4F)n3)cc2[nH]1` [Example 41, 5-((6-(2-fluoro-3-hydroxyphenyl)pyridin-2-yl)oxy)-1,3-dihydro-2H-benzo[d]imidazol-2-one]: 5 to 10 µM; `Oc1cc(Oc2cccc(-c3cc4ccccc4s3)n2)ccc1F` [Example 9, 5-((6-(benzo[b]thiophen-2-yl)pyridin-2-yl)oxy)-2-fluorophenol]: 10 to 30 µM. On to `CN1CCN(S(=O)(=O)c2cccc(-c3cccc(Oc4ccc(F)c(O)c4)n3)c2)CC1` [Example 43, 2-fluoro-5-((6-(3-((4-methylpiperazin-1-yl)sulfonyl)phenyl)pyridin-2-yl)oxy)phenol], for which the IC50 was in the range of 5 to 10 µM. Next, `NS(=O)(=O)c1cccc(-c2cccc(Oc3ccc(F)c(O)c3)n2)c1` [Example 49, 3-[6-(4-fluoro-3-hydroxyphenoxy)pyridin-2-yl]benzene-1-sulfonamide]: 5 to 10 µM. Next, `O=S1(=O)CCN(c2ccc(-c3cccc(Oc4ccc(F)c(O)c4)n3)cc2)CC1` [Example 31, 4-(4-(6-(4-fluoro-3-hydroxyphenoxy)pyridin-2-yl)phenyl)thiomorpholine 1,1-dioxide]: not above 5 µM; `O=S(=O)(Nc1cccc(Oc2cccc(-c3cccc(O)c3F)n2)c1)C1CC1` [Example 93, N-(3-{[6-(2-fluoro-3-hydroxyphenyl)pyridin-2-yl]oxy}phenyl)cyclopropane-sulfonamide]: more than 30 µM. Next, `CNc1nc2cc(-c3cccc(Oc4ccc(F)c(O)c4)n3)ccc2s1` [Example 21]: 5 to 10 µM; `CNC(=O)c1cc(Oc2cccc(-c3cccc(OC)c3F)n2)ccc1F` [Example 109, 2-fluoro-5-{[6-(2-fluoro-3-methoxyphenyl)pyridin-2-yl]oxy}-N-methylbenzamide]: more than 30 µM. In the case of `Oc1cc(Oc2cccc(-c3ccc(F)cc3F)n2)ccc1F` [Example 84, 5-{[6-(2,4-difluorophenyl)pyridin-2-yl]oxy}-2-fluorophenol], the IC50 is 5 to 10 µM. With `CNc1cccc(-c2cccc(Oc3ccc(F)c(O)c3)n2)c1` [Example 54, 2-fluoro-5-({6-[3-(methylamino)phenyl]pyridin-2-yl}oxy)phenol], the IC50 is not above 5 µM. As for `NS(=O)(=O)c1ccc(-c2cccc(Oc3ccc(F)c(O)c3)n2)cc1` [Example 76, 4-(6-(4-fluoro-3-hydroxyphenoxy)pyridin-2-yl)benzene sulfonamide], the half-maximal inhibitory concentration (IC50) fell in the range of 10 to 30 µM.

For `N#Cc1c(Oc2ccc(F)c(O)c2)cccc1-c1cccc(O)c1F` [Example 22, 2′-fluoro-3-(4-fluoro-3-hydroxyphenoxy)-3′-hydroxy-[1,1′-biphenyl]-2-carbonitrile], the IC50 was not above 5 µM. For the compound `NC(=O)c1ccc(-c2cccc(O)c2F)nc1Oc1ccc(F)c(O)c1` [Example 25, 2-(4-fluoro-3-hydroxyphenoxy)-6-(2-fluoro-3-hydroxyphenyl)pyridine-3-carboxamide], the IC50 was not above 5 µM. For `O=C1Cc2ccc(Oc3cccc(-c4cccc(O)c4F)n3)cc2N1` [Example 7], the IC50 was more than 30 µM.

For `Oc1cc(Oc2cccc(-c3ccccc3Cl)n2)ccc1F` [Example 83, 5-{[6-(2-chlorophenyl)pyridin-2-yl]oxy}-2-fluorophenol], the 50% inhibitory concentration (IC50) was not above 5 µM.
